Measured values: patent US4402962A, “Analgesic mixture of nalbuphine and 4,5-bis(4-methoxyphenyl)-2-(trifluoromethylsulfonyl)-1H-imidazole” (E. I. Du Pont de Nemours and Company, priority 1982, dated 1983)

Experiment: phenyl-p-benzoquinone induced writhing test in mice (mouse antiphenylquinone writhing test), oral
Type: in vivo, mouse (male CF1)
Conditions: for % MICE BLOCKED: oral
Description: The phenyl-p-benzoquinone induced writhing test in mice [H. Blumberg et al., Proc. Soc. […] The method simply consists of reading the % ED50 DOSE for each dose ratio on the best fit regression analysis curve from the mouse isobologram, multiplying each component by its effective species dose, and then forming the ratio of the amount of nalbuphine to 4,5-bis(4-methoxyphenyl)-2-(trifluoromethylsulfonyl)-1 H-imidazole. […] [E. W. Pelikan, The Pharmacologist, 1, 73 (1959). ]
Male CF1 mice obtained from Charles River Breeding Laboratories, fasted for 16-22 hours and weighing 18-22 g at the time of testing are used throughout. All mice are dosed sequentially by the oral route with suspensions of 4,5-bis(4-methoxyphenyl)-2-(trifluoromethylsulfonyl)-1H-imidazole and/or of nalbuphine hydrochloride. A dosing volume of 10 ml/kg is used for each sequential solution or suspension. […] All doses are coded and the test is performed under a code not known to the observer.
A stock suspension of 4,5-bis(4-methoxyphenyl)-2-trifluoromethylsulfonyl)-1H-imidazole is prepared by mixing 8.0 mg 4,5-bis(4-methoxyphenyl)-2-(trifluoromethylsulfonyl)-1H-imidazole with 80 ml of an aqueous vehicle containing 2% by volume of Tween 80®, a pharmacological dispersant manufactured by Fisher Scientific Company and containing 100% polysorbate 80, and 1% by weight of Methocel® MC powder, a suspending agent manufactured by DOW Chemical Company and containing 100% methylcellulose, in distilled water. The mixture is sonicated at 150 watts for 1-2 minutes with an ultrasound system, then shaken for two hours at 280 oscillations/minute with 15-20 gm of glass beads. The resultant suspension contains 0.1 mg/ml of 4,5-bis(4-methoxyphenyl)-2-(trifluoromethylsulfonyl)-1H-imidazole; all dosing suspensions are prepared by dilution of the stock suspension with the Methocel®/Tween 80® vehicle; the vehicle control is Methocel®/Tween 80®. All suspensions are prepared fresh daily.
Stock solutions of nalbuphine HCl are prepared by dissolving dry nalbuphine hydrochloride powder with distilled water. All dosing solutions are prepared by dilution of the stock solution with distilled water; the vehicle control is distilled water.
As indicated above, the standard procedure based upon the prevention of phenyl-p-benzoquinone induced writhing in mice is utilized to detect and quantify the analgetic activity of compositions containing nalbuphine and 4,5-bis(4-methoxyphenyl)-2-(trifluoromethylsulfonyl)-1H-imidazole.
Mice, intubated with various doses of nalbuphine hydrochloride, 4,5-bis(4-methoxyphenyl)-2-(trifluoromethylsulfonyl)-1H-imidazole, combined doses of nalbuphine hydrochloride and 4,5-bis(4-methoxyphenyl)-2-(trifluoromethylsulfonyl)-1H-imidazole, or vehicle, are injected intraperitoneally with a challenge dose of phenyl-p-benzoquinone 5 minutes prior to the designated observation period. The phenyl-p-benzoquinone is prepared as an 0.1 mg/ml solution in 5% by volume of ethanol in water; the writhing dose is 1.25 mg/kg injected in a volume of 0.25 ml/20 g. For scoring purposes a "writhe" is indicated by whole body stretching or contraction of the abdomen; mice are observed 10 minutes for the presence or absence of writhing beginning 5 minutes after receiving the phenyl-p-benzoquinone dose. Each mouse is used only once, then discarded. […] This dosage as described herein is referred to as the ED50. All ED50 values and their 95% confidence limits are determined numerically by the computer-assisted methods of Finney. [D. J. Finney, "Probit Analysis," Third Edition, Cambridge University Press, Cambridge, England, 1971].

SMILES: COc1ccc(-c2nc(S(=O)(=O)C(F)(F)F)[nH]c2-c2ccc(OC)cc2)cc1 [CII, 4,5-bis(4-methoxyphenyl)-2-(trifluoromethylsulfonyl)-1H-imidazole]
- % MICE BLOCKED (40 min, CII 0.063 mg/kg): 10.0%
- % MICE BLOCKED (40 min, CII 0.125 mg/kg): 46.7%
- % MICE BLOCKED (40 min, CII 0.250 mg/kg): 73.3%
- % MICE BLOCKED (40 min, CII 0.500 mg/kg): 93.3%
- ED50 at 40 min, CII (40 min post oral dosing, CII part of the ED50 dose, N = 30 mice/dose): 0.161 mg/kg
- % MICE BLOCKED (80 min, CII 0.03 mg/kg): 13.3%
- % MICE BLOCKED (80 min, CII 0.06 mg/kg): 26.7%
- % MICE BLOCKED (80 min, CII 0.12 mg/kg): 56.7%
- % MICE BLOCKED (80 min, CII 0.24 mg/kg): 63.3%
- ED50 at 80 min, CII (80 min post oral dosing, CII part of the ED50 dose, N = 30 mice/dose): 0.135 mg/kg

SMILES: Oc1ccc2c3c1O[C@H]1[C@@H](O)CC[C@@]4(O)[C@@H](C2)N(CC2CCC2)CC[C@]314 [Nalbuphine, (-)-17-(cyclobutylmethyl)-4,5α-epoxymorphinan-3,6α,14-triol]
- % MICE BLOCKED (40 min, nalbuphine HCl 5.85 mg/kg): 16.7%
- % MICE BLOCKED (40 min, nalbuphine HCl 11.7 mg/kg): 30.0%
- % MICE BLOCKED (40 min, nalbuphine HCl 23.4 mg/kg): 43.3%
- % MICE BLOCKED (40 min, nalbuphine HCl 46.8 mg/kg): 70.0%
- % MICE BLOCKED (40 min, nalbuphine HCl 93.6 mg/kg): 83.3%
- ED50 at 40 min, nalbuphine HCl (40 min post oral dosing, nalbuphine HCl part of the ED50 dose, N = 30 mice/dose): 28.9 mg/kg
- % MICE BLOCKED (80 min, nalbuphine HCl 24.5 mg/kg): 6.7%
- % MICE BLOCKED (80 min, nalbuphine HCl 49 mg/kg): 26.7%
- % MICE BLOCKED (80 min, nalbuphine HCl 98 mg/kg): 40.0%
- % MICE BLOCKED (80 min, nalbuphine HCl 196 mg/kg): 56.7%
- % MICE BLOCKED (80 min, nalbuphine HCl 392 mg/kg): 83.3%
- ED50 at 80 min, nalbuphine HCl (80 min post oral dosing, nalbuphine HCl part of the ED50 dose, N = 30 mice/dose): 141 mg/kg
